The test system of the data set is Influenza, Ann Arbor virus. In words: Influenza Ann Arbor in mice, oral; schedule by table; late read day 5 (Tables 15, 25, 29, 30), 6 (18, 20, 22, 23, 26, 27, 28, 54), 7 (14, 19, 21, 24, 53, 56), 8 (16, 17, 51), 9 (11, 55). It counts as in vivo, mouse. The following applies: for Toxic: oral, mouse.

Each structure is given as a SMILES string. Counter-ions that a name gives are not always drawn.

As for `CN(C)N` [1,1-dimethylhydrazine], the “No. animals surviving after 5-7 days” value is recorded as 5 (total dose 30 pg); 3 (total dose 300 pg); 3 (total dose 3 ng); 2 (total dose 30 ng); 3 (total dose 300 ng); 2 (total dose 3 μg). In addition, the “No. animals surviving after 5-7 days” value came to 1 (total dose 30 μg), 3 (total dose 300 μg) and 2 (total dose 3 mg). Besides, the Survivors reads like this: (total dose 30 pg) 0; (total dose 300 pg) 0; (total dose 3 ng) 1; (total dose 30 ng) 0; (total dose 300 ng) 0; (total dose 3 μg) 0. Besides, the Survivors reads like this: (total dose 30 μg) 1; (total dose 300 μg) 0; (total dose 3 mg) 0.

In the case of `CNNC` [1,2-dimethylhydrazine, dihydrochloride], the “No. animals surviving after 5-7 days” value reads like this: (total dose 30 pg) 6; (total dose 300 pg) 2; (total dose 3 ng) 3; (total dose 30 ng) 3; (total dose 300 ng) 5; (total dose 3 μg) 3. Besides, the “No. animals surviving after 5-7 days” value is recorded as 4 (total dose 30 μg), 6 (total dose 300 μg) and 3 (total dose 3 mg). Moreover, the Survivors amounted to 1 (total dose 30 pg); 0 (total dose 300 pg); 0 (total dose 3 ng); 1 (total dose 30 ng); 0 (total dose 300 ng); 0 (total dose 3 μg). Moreover, the Survivors is reported as 0 (total dose 30 μg), 0 (total dose 300 μg) and 0 (total dose 3 mg).

Take `CCC(C)=NNC(=N)N.O=[N+]([O-])O` [1-(sec-butylideneamino)guanidine nitrate, 1-(sec-butylideneamino)guanidine, nitrate]: the “No. animals surviving after 5-7 days” value (total dose 3 ng) stood at 0; the “No. animals surviving after 5-7 days” value (total dose 30 ng) amounted to 1; the “No. animals surviving after 5-7 days” value (total dose 300 ng) is 3; the “No. animals surviving after 5-7 days” value (total dose 3 μg) is recorded as 0; the “No. animals surviving after 5-7 days” value (total dose 30 μg) stood at 2; the “No. animals surviving after 5-7 days” value (total dose 300 μg) came out at 0. Moreover, the Survivors was found to be 0 (total dose 3 ng); 0 (total dose 30 ng); 2 (total dose 300 ng); 0 (total dose 3 μg); 2 (total dose 30 μg); 0 (total dose 300 μg).

As for `C=CCNC(=S)NN=C1Cc2ccccc2C1` [2-Indanone, 4-allylthiosemicarbazone], the “No. animals surviving after 5-7 days” value runs as follows: (total dose 30 pg) 4; (total dose 300 pg) 7; (total dose 3 ng) 4; (total dose 30 ng) 6; (total dose 300 ng) 6; (total dose 3 μg) 2. Besides, the “No. animals surviving after 5-7 days” value by setting is: (total dose 30 μg) 6; (total dose 300 μg) 2; (total dose 3 mg) 4. Also, the Survivors reads like this: (total dose 30 pg) 0; (total dose 300 pg) 0; (total dose 3 ng) 0; (total dose 30 ng) 0; (total dose 300 ng) 0; (total dose 3 μg) 0. Further, the Survivors by setting is: (total dose 30 μg) 0; (total dose 300 μg) 0; (total dose 3 mg) 1.

Turning to `NC(=S)NN=C1Cc2ccccc2C1` [2-indanone, thiosemicarbazone], the “No. animals surviving after 5-7 days” value (total dose 30 pg) was determined as 8; the “No. animals surviving after 5-7 days” value (total dose 300 pg) came to 8; the “No. animals surviving after 5-7 days” value (total dose 3 ng) came to 5; the “No. animals surviving after 5-7 days” value (total dose 30 ng) was found to be 9; the “No. animals surviving after 5-7 days” value (total dose 300 ng) worked out at 8; the “No. animals surviving after 5-7 days” value (total dose 3 μg) was 8. For the same compound, the “No. animals surviving after 5-7 days” value (total dose 30 μg) is given as 8 and the “No. animals surviving after 5-7 days” value (total dose 300 μg) was 6. Besides, the Survivors was 1 (total dose 30 pg); 0 (total dose 300 pg); 0 (total dose 3 ng); 0 (total dose 30 ng); 1 (total dose 300 ng); 1 (total dose 3 μg). For the same compound, the Survivors (total dose 30 μg) stood at 0 and the Survivors (total dose 300 μg) turned out to be 0. Besides, the Toxic result (total dose 3 mg) is recorded as “Toxic”.

With `CCCC(C)=NNC(N)=S` [2-pentanone, thiosemicarbazone], the “No. animals surviving after 5-7 days” value (total dose 30 pg) was 2; the “No. animals surviving after 5-7 days” value (total dose 300 pg) came to 2; the “No. animals surviving after 5-7 days” value (total dose 3 ng) turned out to be 2; the “No. animals surviving after 5-7 days” value (total dose 30 ng) is given as 2; the “No. animals surviving after 5-7 days” value (total dose 300 ng) was determined as 1; the “No. animals surviving after 5-7 days” value (total dose 3 μg) is recorded as 1. The “No. animals surviving after 5-7 days” value runs as follows: (total dose 30 μg) 1; (total dose 300 μg) 0. The compound further had a Survivors (total dose 30 pg) of 0; a Survivors (total dose 300 pg) of 0; a Survivors (total dose 3 ng) of 0; a Survivors (total dose 15 ng) of 0; a Survivors (total dose 22.5 ng) of 0; a Survivors (total dose 30 ng) of 0. Also, the Survivors (total dose 75 ng) came to 0; the Survivors (total dose 150 ng) is given as 0; the Survivors (total dose 225 ng) is on record as 0; the Survivors (total dose 300 ng) is recorded as 0; the Survivors (total dose 750 ng) came out at 0; the Survivors (total dose 1.5 μg) is 0. Moreover, the Survivors (total dose 2.25 μg) is 1, the Survivors (total dose 3 μg) worked out at 0, the Survivors (total dose 30 μg) worked out at 1 and the Survivors (total dose 300 μg) turned out to be 0. Besides, the “No. animals surviving after 7 days” value reads like this: (total dose 15 ng) 3; (total dose 22.5 ng) 0; (total dose 75 ng) 1; (total dose 150 ng) 0; (total dose 225 ng) 3; (total dose 750 ng) 2. Besides, the “No. animals surviving after 7 days” value (total dose 1.5 μg) is 2 and the “No. animals surviving after 7 days” value (total dose 2.25 μg) turned out to be 1.

In the case of `CCC(CC)=NNC(N)=S` [3-pentanone, thiosemicarbazone], the “No. animals surviving after 5-7 days” value by setting is: (total dose 30 pg) 2; (total dose 300 pg) 1; (total dose 3 ng) 3; (total dose 30 ng) 0; (total dose 300 ng) 3; (total dose 3 μg) 6. In addition, the “No. animals surviving after 5-7 days” value is given as 7 (total dose 30 μg) and 4 (total dose 300 μg). The Survivors by setting is: (total dose 30 pg) 0; (total dose 300 pg) 0; (total dose 3 ng) 0; (total dose 30 ng) 0; (total dose 300 ng) 0; (total dose 3 μg) 1. For the same compound, the Survivors by setting is: (total dose 12 μg) 0; (total dose 18 μg) 1; (total dose 24 μg) 0; (total dose 30 μg) 0; (total dose 60 μg) 0; (total dose 90 μg) 0. Besides, the Survivors came to 1 (total dose 120 μg), 1 (total dose 150 μg) and 0 (total dose 300 μg). The “No. animals surviving after 7 days” value is, setting by setting: (total dose 12 μg) 1; (total dose 18 μg) 1; (total dose 24 μg) 0; (total dose 60 μg) 1; (total dose 90 μg) 3; (total dose 120 μg) 1. For the same compound, the “No. animals surviving after 7 days” value (total dose 150 μg) worked out at 2.

Turning to `CNN` [Methylhydrazine, methylhydrazine], the “No. animals surviving after 5-7 days” value was determined as 2 (total dose 30 pg); 3 (total dose 300 pg); 3 (total dose 3 ng); 4 (total dose 30 ng); 1 (total dose 300 ng); 3 (total dose 3 μg). Further, the “No. animals surviving after 5-7 days” value (total dose 30 μg) is on record as 3 and the “No. animals surviving after 5-7 days” value (total dose 300 μg) is 1. Also, the Survivors reads like this: (total dose 30 pg) 1; (total dose 300 pg) 0; (total dose 3 ng) 1; (total dose 30 ng) 1; (total dose 300 ng) 0; (total dose 3 μg) 0. Moreover, the Survivors is 1 (total dose 30 μg) and 0 (total dose 300 μg). Further, the Toxic entry (total dose 3 mg) is listed as “Toxic”.

As to `NC(N)=S` [Thiourea], the “No. animals surviving after 5-7 days” value was 2 (total dose 30 pg); 4 (total dose 300 pg); 3 (total dose 3 ng); 4 (total dose 30 ng); 2 (total dose 300 ng); 7 (total dose 3 μg). For the same compound, the “No. animals surviving after 5-7 days” value is, setting by setting: (total dose 30 μg) 3; (total dose 300 μg) 6; (total dose 3 mg) 5. The Survivors reads like this: (total dose 30 pg) 0; (total dose 300 pg) 0; (total dose 3 ng) 1; (total dose 30 ng) 0; (total dose 300 ng) 0; (total dose 3 μg) 0. In addition, the Survivors is given as 0 (total dose 30 μg), 1 (total dose 300 μg) and 0 (total dose 3 mg).

Regarding `NC(N)=NN=Cc1c(Cl)cccc1Cl` [[(2,6-dichlorobenzylidine)amino]guanidine acetate], the “No. animals surviving after 5-7 days” value is, setting by setting: (total dose 30 pg) 4; (total dose 300 pg) 2; (total dose 3 ng) 4; (total dose 30 ng) 1; (total dose 300 ng) 1; (total dose 3 μg) 2. The “No. animals surviving after 5-7 days” value (total dose 30 μg) came to 3 and the “No. animals surviving after 5-7 days” value (total dose 300 μg) came out at 1. Also, the Survivors (total dose 30 pg) came out at 0; the Survivors (total dose 300 pg) is 1; the Survivors (total dose 3 ng) is reported as 0; the Survivors (total dose 30 ng) is given as 0; the Survivors (total dose 300 ng) is recorded as 0; the Survivors (total dose 3 μg) was determined as 0. For the same compound, the Survivors by setting is: (total dose 30 μg) 0; (total dose 300 μg) 0. In addition, under “total dose 3 mg”, the Toxic result was “Toxic”.

(Values after patent US4027039A (priority 1975, dated 1977).)
